Reference: patent US5773421A, “Antifungal fusacandins” (Abbott Laboratories, priority 1995, dated 1998)
In brackets after ≈: the same amount, converted by molar mass. Where two headings read alike, the source gives them in different places.

Columns and labels:
Assay in all cases: MIC by agar dilution method
Format in all cases: cell-based
[1] = tested on: Candida albicans CCH 442; settings: CCH442; Table 6c, 3rd value column (head printed II); III Candida albicans CCH 442; agar dilution; read-out: MIC II
Protocol: (§1) Minimal inhibitory concentrations (MICs) were determined by an agar dilution method. The test compounds were serially diluted in MeOH and 0.2 mL portions were mixed with 20 mL of molten, cooled Sabouraud dextrose agar (Difco). Yeast cell inoculum was prepared by growing cultures on Sabouraud dextrose agar for 18 hours at 32° C. and suspending the cells in phosphate buffered saline. Filamentous fungi were grown under the same conditions for 4 days to obtain spores. The inoculum level for all cultures was adjusted to 10^4 cells using a Petroff-Hauser cell counter. The glutarimide antifungal compounds cycloheximide or amphotericin B were used as a control. Inoculated test plates were incubated at 32° C. and examined after 20 hours.

[2] = tested on: Candida albicans ATCC 62376
Protocol: as §1

[3] = tested on: Candida albicans ATCC 38247
Protocol: as §1

[4] = tested on: Candida albicans ATCC 10231
Protocol: as §1

[5] = tested on: Candida albicans 579a; settings: read-out: MIC II
Protocol: as §1

[6] = ATCC62376, Table 6c, V Candida albicans ATCC 62376, agar dilution, read-out: MIC V
[7] = ATCC38247, Table 6c, IV Candida albicans ATCC 38247, agar dilution, read-out: MIC IV
[8] = ATCC10231, Table 6c, I Candida albicans ATCC 10231, agar dilution, read-out: MIC I
[9] = Table 6c, II Candida albicans 579a, agar dilution
[10] = Candida albicans, ATCC62376, read-out: MIC V
[11] = Candida albicans, ATCC38247, read-out: MIC IV
[12] = Candida albicans, ATCC10231, read-out: MIC I

SMILES	MIC [1] [µg/mL]	MIC [2, 6] [µg/mL]	MIC [3, 7] [µg/mL]	MIC [4, 8] [µg/mL]	MIC [5, 9] [µg/mL]	MIC [2, 10] [µg/mL]	MIC [3, 11] [µg/mL]	MIC [4, 12] [µg/mL]	MIC ([5]; Candida albicans, 579A) [µg/mL]
CCCCC/C=C/C=C/[C@@H](O)C/C=C/C=C/C(=O)O[C@@H]1[C@@H](O)[C@H](c2c(O)cc(O)cc2CO)O[C@H](CO)[C@H]1O[C@@H]1O[C@H](COC(=O)c2cccc(-c3ccc(OC)cc3)c2)[C@H](O)[C@H](O)[C@H]1O[C@@H]1O[C@H](CO)[C@H](O)[C@H](O)[C@H]1O [Example 39]	1.56 (≈ 1.44 µM)	3.12 (≈ 2.88 µM)	1.56 (≈ 1.44 µM)	1.56 (≈ 1.44 µM)	0.78 (≈ 0.72 µM)				
CCCCC/C=C/C=C/[C@@H](O)C/C=C/C=C/C(=O)O[C@@H]1[C@@H](O)[C@H](c2c(O)cc(O)cc2CO)O[C@H](CO)[C@H]1O[C@@H]1O[C@H](COC(=O)c2ccc(-c3ccc(CC)cc3)cc2)[C@H](O)[C@H](O)[C@H]1O[C@@H]1O[C@H](CO)[C@H](O)[C@H](O)[C@H]1O [Example 21]	0.78 (≈ 0.721 µM)	0.39 (≈ 0.361 µM)	0.78 (≈ 0.721 µM)	0.78 (≈ 0.721 µM)	0.2 (≈ 0.185 µM)				
C=CCOc1ccc2cc(C(=O)OC[C@H]3O[C@@H](O[C@H]4[C@H](OC(=O)/C=C/C=C/C[C@H](O)/C=C/C=C/CCCCC)[C@@H](O)[C@H](c5c(O)cc(O)cc5CO)O[C@@H]4CO)[C@H](O[C@@H]4O[C@H](CO)[C@H](O)[C@H](O)[C@H]4O)[C@@H](O)[C@H]3O)ccc2c1 [Example 23]	6.25 (≈ 5.77 µM)	6.25 (≈ 5.77 µM)	6.25 (≈ 5.77 µM)	12.5 (≈ 11.5 µM)	3.12 (≈ 2.88 µM)				
CCCCC/C=C/C=C/[C@@H](O)C/C=C/C=C/C(=O)O[C@@H]1[C@@H](O)[C@H](c2c(O)cc(O)cc2CO)O[C@H](CO)[C@H]1O[C@@H]1O[C@H](COC(=O)c2ccc(-c3ccc(OC)cc3)cc2)[C@H](O)[C@H](O)[C@H]1O[C@@H]1O[C@H](CO)[C@H](O)[C@H](O)[C@H]1O [Example 32]	0.78 (≈ 0.72 µM)	0.78 (≈ 0.72 µM)	3.12 (≈ 2.88 µM)	0.78 (≈ 0.72 µM)	1.56 (≈ 1.44 µM)				
CCCCC/C=C/C=C/[C@@H](O)C/C=C/C=C/C(=O)O[C@@H]1[C@@H](O)[C@H](c2c(O)cc(O)cc2CO)O[C@H](CO)[C@H]1O[C@@H]1O[C@H](COC(=O)c2ccc(OCCCCCCCC)cc2)[C@H](O)[C@H](O)[C@H]1O[C@@H]1O[C@H](CO)[C@H](O)[C@H](O)[C@H]1O [Example 18]	1.56 (≈ 1.41 µM)	0.78 (≈ 0.706 µM)	1.56 (≈ 1.41 µM)	3.12 (≈ 2.82 µM)	1.56 (≈ 1.41 µM)				
CCCCC/C=C/C=C/[C@@H](O)C/C=C/C=C/C(=O)O[C@@H]1[C@@H](O)[C@H](c2c(O)cc(O)cc2CO)O[C@H](CO)[C@H]1O[C@@H]1O[C@H](COC(=O)c2ccc(-c3ccc(OCc4ccccc4)cc3)cc2)[C@H](O)[C@H](O)[C@H]1O[C@@H]1O[C@H](CO)[C@H](O)[C@H](O)[C@H]1O [Example 37]	3.12 (≈ 2.69 µM)	1.56 (≈ 1.35 µM)	3.12 (≈ 2.69 µM)	1.56 (≈ 1.35 µM)	1.56 (≈ 1.35 µM)				
CCCCC/C=C/C=C/[C@@H](O)C/C=C/C=C/C(=O)O[C@@H]1[C@@H](O)[C@H](c2c(O)cc(O)cc2CO)O[C@H](CO)[C@H]1O[C@@H]1O[C@H](COC(=O)c2ccc3cc(OCc4ccccc4)ccc3c2)[C@H](O)[C@H](O)[C@H]1O[C@@H]1O[C@H](CO)[C@H](O)[C@H](O)[C@H]1O [Example 24]	25 (≈ 22.1 µM)	25 (≈ 22.1 µM)	50 (≈ 44.1 µM)	25 (≈ 22.1 µM)	25 (≈ 22.1 µM)				
CCCCC/C=C/C=C/[C@@H](O)C/C=C/C=C/C(=O)O[C@@H]1[C@@H](O)[C@H](c2c(O)cc(O)cc2CO)O[C@H](CO)[C@H]1O[C@@H]1O[C@H](COC(=O)c2ccc3c(c2)-c2ccccc2-3)[C@H](O)[C@H](O)[C@H]1O[C@@H]1O[C@H](CO)[C@H](O)[C@H](O)[C@H]1O [Example 28]	0.39 (≈ 0.371 µM)	1.56 (≈ 1.48 µM)	0.78 (≈ 0.742 µM)	1.56 (≈ 1.48 µM)	0.39 (≈ 0.371 µM)				
CCCCC/C=C/C=C/[C@@H](O)C/C=C/C=C/C(=O)O[C@@H]1[C@@H](O)[C@H](c2c(O)cc(O)cc2CO)O[C@H](CO)[C@H]1O[C@@H]1O[C@H](COC(=O)c2ccccc2)[C@H](O)[C@H](O)[C@H]1O[C@@H]1O[C@H](CO)[C@H](O)[C@H](O)[C@H]1O [Example 14]	12.5 (≈ 12.8 µM)	12.5 (≈ 12.8 µM)	6.25 (≈ 6.4 µM)	12.5 (≈ 12.8 µM)	6.25 (≈ 6.4 µM)				
CCCCC/C=C/C=C/[C@@H](O)C/C=C/C=C/C(=O)O[C@@H]1[C@@H](O)[C@H](c2c(O)cc(O)cc2CO)O[C@H](CO)[C@H]1O[C@@H]1O[C@H](COC(=O)CCC)[C@H](O)[C@H](O)[C@H]1O[C@@H]1O[C@H](CO)[C@H](O)[C@H](O)[C@H]1O [Example 12]	25 (≈ 26.5 µM)	50 (≈ 53 µM)	25 (≈ 26.5 µM)	50 (≈ 53 µM)	50 (≈ 53 µM)				
CCCCC/C=C/C=C/[C@@H](O)C/C=C/C=C/C(=O)O[C@@H]1[C@@H](O)[C@H](c2c(O)cc(O)cc2CO)O[C@H](CO)[C@H]1O[C@@H]1O[C@H](COC(=O)c2ccc3ccc4ccccc4c3c2)[C@H](O)[C@H](O)[C@H]1O[C@@H]1O[C@H](CO)[C@H](O)[C@H](O)[C@H]1O [Example 26]	1.56 (≈ 1.45 µM)					0.78 (≈ 0.724 µM)	1.56 (≈ 1.45 µM)	0.78 (≈ 0.724 µM)	0.78 (≈ 0.724 µM)
CCCCC/C=C/C=C/[C@@H](O)C/C=C/C=C/C(=O)O[C@@H]1[C@@H](O)[C@H](c2c(O)cc(O)cc2CO)O[C@H](CO)[C@H]1O[C@@H]1O[C@H](COC(=O)c2ccc(-c3ccccc3OC)cc2)[C@H](O)[C@H](O)[C@H]1O[C@@H]1O[C@H](CO)[C@H](O)[C@H](O)[C@H]1O [Example 40]	6.25 (≈ 5.77 µM)	1.56 (≈ 1.44 µM)	6.25 (≈ 5.77 µM)	6.25 (≈ 5.77 µM)	1.56 (≈ 1.44 µM)				
CCCCC/C=C/C=C/[C@@H](O)C/C=C/C=C/C(=O)O[C@@H]1[C@@H](O)[C@H](c2c(O)cc(O)cc2CO)O[C@H](CO)[C@H]1O[C@@H]1O[C@H](COC(=O)c2ccc(CCCC)cc2)[C@H](O)[C@H](O)[C@H]1O[C@@H]1O[C@H](CO)[C@H](O)[C@H](O)[C@H]1O [Example 15]	3.12 (≈ 3.02 µM)	1.56 (≈ 1.51 µM)	1.56 (≈ 1.51 µM)	3.12 (≈ 3.02 µM)	0.78 (≈ 0.755 µM)				
CCCCC/C=C/C=C/[C@@H](O)C/C=C/C=C/C(=O)O[C@@H]1[C@@H](O)[C@H](c2c(O)cc(O)cc2CO)O[C@H](CO)[C@H]1O[C@@H]1O[C@H](COC(=O)c2ccc(-c3ccc4c(c3)OCO4)cc2)[C@H](O)[C@H](O)[C@H]1O[C@@H]1O[C@H](CO)[C@H](O)[C@H](O)[C@H]1O [Example 36]	1.56 (≈ 1.42 µM)	1.56 (≈ 1.42 µM)	1.56 (≈ 1.42 µM)	1.56 (≈ 1.42 µM)	0.78 (≈ 0.711 µM)				
CCCCC/C=C/C=C/[C@@H](O)C/C=C/C=C/C(=O)O[C@@H]1[C@@H](O)[C@H](c2c(O)cc(O)cc2CO)O[C@H](CO)[C@H]1O[C@@H]1O[C@H](COC(=O)c2cc3ccccc3c3ccccc23)[C@H](O)[C@H](O)[C@H]1O[C@@H]1O[C@H](CO)[C@H](O)[C@H](O)[C@H]1O [Example 27]	3.12 (≈ 2.9 µM)					3.12 (≈ 2.9 µM)	6.25 (≈ 5.8 µM)	3.12 (≈ 2.9 µM)	3.12 (≈ 2.9 µM)
CCCCC/C=C/C=C/[C@@H](O)C/C=C/C=C/C(=O)O[C@@H]1[C@@H](O)[C@H](c2c(O)cc(O)cc2CO)O[C@H](CO)[C@H]1O[C@@H]1O[C@H](COC(=O)/C=C/c2ccccc2)[C@H](O)[C@H](O)[C@H]1O[C@@H]1O[C@H](CO)[C@H](O)[C@H](O)[C@H]1O [Example 16]	12.5 (≈ 12.5 µM)	12.5 (≈ 12.5 µM)	6.25 (≈ 6.23 µM)	12.5 (≈ 12.5 µM)	12.5 (≈ 12.5 µM)				
CCCCC/C=C/C=C/[C@@H](O)C/C=C/C=C/C(=O)O[C@@H]1[C@@H](O)[C@H](c2c(O)cc(O)cc2CO)O[C@H](CO)[C@H]1O[C@@H]1O[C@H](COC(=O)c2ccc(-c3ccc(OCCC)cc3)cc2)[C@H](O)[C@H](O)[C@H]1O[C@@H]1O[C@H](CO)[C@H](O)[C@H](O)[C@H]1O [Example 42]	0.78 (≈ 0.702 µM)	0.78 (≈ 0.702 µM)	0.78 (≈ 0.702 µM)	0.78 (≈ 0.702 µM)	0.78 (≈ 0.702 µM)				
CCCCC/C=C/C=C/[C@@H](O)C/C=C/C=C/C(=O)O[C@@H]1[C@@H](O)[C@H](c2c(O)cc(O)cc2CO)O[C@H](CO)[C@H]1O[C@@H]1O[C@H](COC(=O)Cc2ccc3ccccc3c2)[C@H](O)[C@H](O)[C@H]1O[C@@H]1O[C@H](CO)[C@H](O)[C@H](O)[C@H]1O [Example 22]	3.12 (≈ 3 µM)	6.25 (≈ 6 µM)	12.5 (≈ 12 µM)	6.25 (≈ 6 µM)	3.12 (≈ 3 µM)				
CCCCC/C=C/C=C/[C@@H](O)C/C=C/C=C/C(=O)O[C@@H]1[C@@H](O)[C@H](c2c(O)cc(O)cc2CO)O[C@H](CO)[C@H]1O[C@@H]1O[C@H](COC(=O)c2ccc(-c3ccc(OC(C)C)cc3)cc2)[C@H](O)[C@H](O)[C@H]1O[C@@H]1O[C@H](CO)[C@H](O)[C@H](O)[C@H]1O [Example 43]	0.78 (≈ 0.702 µM)	0.78 (≈ 0.702 µM)	0.78 (≈ 0.702 µM)	1.56 (≈ 1.4 µM)	0.78 (≈ 0.702 µM)				
CCCCC/C=C/C=C/[C@@H](O)C/C=C/C=C/C(=O)O[C@@H]1[C@@H](O)[C@H](c2c(O)cc(O)cc2CO)O[C@H](CO)[C@H]1O[C@@H]1O[C@H](COC(=O)c2cccc(-c3ccc(-c4ccccc4)cc3)c2)[C@H](O)[C@H](O)[C@H]1O[C@@H]1O[C@H](CO)[C@H](O)[C@H](O)[C@H]1O [Example 34]	6.25 (≈ 5.53 µM)	3.12 (≈ 2.76 µM)	6.25 (≈ 5.53 µM)	6.25 (≈ 5.53 µM)	3.12 (≈ 2.76 µM)				
